Experimental data published in article PMC8222254, “Self-assembly of an anion receptor with metal-dependent kinase inhibition and potent in vitro anti-cancer properties” (Nature Communications, 2021).
Where “and” joins values, the source holds several entries; their conditions need not be identical. Equal values may be shown once. Read-outs that look alike come from different tables or passages of the source.

What was measured:
Assay in all cases: Chemosensitivity, 96 h continuous exposure, MTT assay
Format in all cases: cell-based, human
[1] = tested on: ARPE-19 non-cancer cells
Text: (§1) All cell lines were purchased from and maintained as monolayers as described by the American Type Culture Collection with the exception of the p53^+/+ and p53^−/− isogenic clones of HCT116 human colorectal adenocarcinoma cells which were a kind gift from Professor Bert Vogelstein[54]. GBM1 cells were established from a primary GBM tumour by Heiko Wurdak and colleagues[32],[33]. Non-cancerous adult brain neural progenitor (NP1) cells were derived from a patient undergoing surgery to treat epilepsy[32],[33]. Cell culture and growth media for NP1 and GBM1 cells were as described[32],[33]. The response of cells following a continuous 96-h exposure to test compounds and platinates was determined using the MTT assay. Potency was recorded as the IC50 and the selectivity index (SI) was defined as the ratio of IC50 values for non-cancer to cancer cell lines with values >1 representing selectivity for cancer cells as opposed to non-cancer cells.
(§2) All cell lines used were maintained at low passage in antibiotic-free media. HT29, DLD-1, HCT116 p53^+/+ and HCT116 p53^−/− are all colorectal adenocarcinoma cell lines derived from different individuals and harbour different combinations of oncogenic lesions (except for the HCT116 isogenic cancer cell clones that are genetically identical except for p53 status). PSN-1, BxPC-3 and MiaPaCa2 are pancreatic carcinoma cell lines and A549 and H460 are lung carcinoma cell lines. HT29, DLD-1, PSN-1, BxPC-3, A549 and H460 cell lines were cultured in RPMI-1640 growth media (Sigma) containing 2 mM L-glutamine, 1 mM sodium pyruvate and 10% foetal bovine serum (FBS). HCT116 (p53^+/+ and p53^−/−) and MiaPaCa2 cell lines were cultured in Dulbecco’s Modified Eagle’s Medium (Sigma), 2 mM L-glutamine and 10% FBS. The ARPE-19 retinal epithelial non-cancer cell line was cultured in DMEM/F12 media (Gibco), 2 mM L-glutamine, 1 mM sodium pyruvate and 10% FBS. The MCF10A non-cancerous human breast epithelial cell line was cultured in Minimal Essential Media Eagle (Sigma), 2 mM L-glutamine, 1 mM sodium pyruvate, 10% FBS and 1x non-essential amino acids (NEAA). NP1 and GBM1 cells were cultured on plasticware coated with poly-L-ornithine (5 µg/ml) and laminin (2.4 µg/ml)[32],[33]. NP1 cells were grown in DMEM/F12 media (Gibco) supplemented with 5% FBS, 20 ng/ml hFGF, 20 ng/ml rhEGF, 0.5x B-27 supplement (Gibco), 0.5x N-2 supplement (Gibco) and 1x GLUTAMAX (Gibco). GBM1 cells were cultured in Neurobasal media (Gibco) supplemented with 40 ng/ml hFGF, 40 ng/ml rhEGF, 0.5x B-27 supplement (Gibco) and 0.5x N-2 supplement (Gibco).
(§3) [L2(Metal)3]^6+ and all the other self-assembling complexes were freshly formed by adding DMSO to individual components and mixing together by pipetting. These were then further diluted in cell culture media such that the final DMSO concentration that cells were exposed to was 0.2% (vehicle control). Cisplatin, oxaliplatin and carboplatin were dissolved in phosphate buffered saline. Cell lines were seeded into 96 well plates at 2 × 10^3 cells per well and incubated overnight at 37 °C. GBM1 cancer stem-like cells were seeded at 3 × 10^3 cells per well and NP1 neural progenitors were seeded at 1.5 × 10^3 cells per well. The following day, media was removed and replaced with fresh media containing test compounds at a range of concentrations. Cells were incubated with test compounds for a further 96 h after which the media was removed and replaced with fresh media (200 μl/well). MTT was added (20 μl at 5 mg/ml) and cells were incubated for a further 4 h. Media and MTT were removed and formazan crystals were dissolved in 150 μl of DMSO and the absorbance of the resulting solution determined at 540 nm. Dose response curves were constructed, and the concentration required to reduce cell growth by 50% (IC50) determined.

[2] = tested on: DLD-1
Text: as §1, §2, §3

[3] = tested on: PSN1
Text: as §1, §2, §3

[4] = tested on: MCF10A non-cancer cells
Text: as §1, §2, §3

[5] = tested on: A549
Text: as §1, §2, §3

[6] = tested on: HT-29
Text: as §1, §2, §3

[7] = tested on: BxPC3
Text: as §1, §2, §3

O=S(=O)([O-])[O-].[Cu+2].[Cu+2].[Cu+2].c1ccc(-c2csc(NCCN(CCNc3nc(-c4ccccn4)cs3)CCNc3nc(-c4ccccn4)cs3)n2)nc1.c1ccc(-c2csc(NCCN(CCNc3nc(-c4ccccn4)cs3)CCNc3nc(-c4ccccn4)cs3)n2)nc1 [[L2Cu3(SO4)]4+]
IC50 ([1]; ARPE-19, mean of replicates, read-out: Mean IC50): 120000 nM
IC50 ([1]; ARPE-19, single replicate, read-out: IC50 values for each replicate): 126000 nM and 121000 nM and 113000 nM
IC50 ([1]; ARPE-19 non-cancer, read-out: Mean IC50 values): 120000 nM
Relative potency (+ anion to no anion), Ratio + anion:no anion ([1]; ratio of IC50, ARPE-19): 2.29
IC50 ([2]; DLD-1, mean of replicates, read-out: Mean IC50): 650 nM
IC50 ([2]; DLD-1, read-out: Mean IC50 values): 650 nM
Selectivity index (ARPE19) ([2]; IC50 ARPE-19 / IC50 DLD-1): 185.09
Selectivity index (MCF10A) ([2]; IC50 MCF10A / IC50 DLD-1): 76.51
Relative potency (+ anion to no anion), Ratio + anion:no anion ([2]; ratio of IC50, DLD-1): 4.92
Selectivity indices relative to ARPE-19, Ratio + anion:no anion ([2]; ratio of SI (ARPE-19), DLD-1): 0.464
Selectivity indices relative to MCF10A, Ratio + anion:no anion ([2]; ratio of SI (MCF 10A), DLD-1): 0.209
Selectivity index (ARPE19) ([3]; IC50 ARPE-19 / IC50 PSN1): 246.54
Selectivity index (MCF10A) ([3]; IC50 MCF10A / IC50 PSN1): 101.91
IC50 ([3]; PSN1, mean of replicates, read-out: Mean IC50): 488 nM
IC50 ([3]; PSN1, read-out: Mean IC50 values): 488 nM
IC50 ([3]; PSN1, single replicate, read-out: IC50 values for each replicate): 449 nM and 779 nM and 235 nM
Relative potency (+ anion to no anion), Ratio + anion:no anion ([3]; ratio of IC50, PSN1): 0.0756
Selectivity indices relative to ARPE-19, Ratio + anion:no anion ([3]; ratio of SI (ARPE-19), PSN1): 30.213
Selectivity indices relative to MCF10A, Ratio + anion:no anion ([3]; ratio of SI (MCF 10A), PSN1): 13.624
IC50 ([4]; MCF10A non-cancer, read-out: Mean IC50 values): 49700 nM
IC50 ([4]; MCF10A, mean of replicates, read-out: Mean IC50): 49700 nM
IC50 ([4]; MCF10A, single replicate, read-out: IC50 values for each replicate): 53200 nM and 42900 nM and 45100 nM and 57700 nM
Relative potency (+ anion to no anion), Ratio + anion:no anion ([4]; ratio of IC50, MCF10A): 1.03
IC50 ([5]; A549, mean of replicates, read-out: Mean IC50): 680 nM
IC50 ([5]; A549, read-out: Mean IC50 values): 680 nM
IC50 ([5]; A549, single replicate, read-out: IC50 values for each replicate): 747 nM and 620 nM and 667 nM and 685 nM
Selectivity index (ARPE19) ([5]; IC50 ARPE-19 / IC50 A549): 176.93
Selectivity index (MCF10A) ([5]; IC50 MCF10A / IC50 A549): 73.14
Relative potency (+ anion to no anion), Ratio + anion:no anion ([5]; ratio of IC50, A549): 2.92
Selectivity indices relative to ARPE-19, Ratio + anion:no anion ([5]; ratio of SI (ARPE-19), A549): 0.783
Selectivity indices relative to MCF10A, Ratio + anion:no anion ([5]; ratio of SI (MCF 10A), A549): 0.353
IC50 ([6]; HT29, mean of replicates, read-out: Mean IC50): 188 nM
IC50 ([6]; HT29, read-out: Mean IC50 values): 188 nM
IC50 ([6]; HT-29, single replicate, read-out: IC50 values for each replicate): 88 nM and 240 nM and 182 nM
Selectivity index (ARPE19) ([6]; IC50 ARPE-19 / IC50 HT29): 639.95
Selectivity index (MCF10A) ([6]; IC50 MCF10A / IC50 HT29): 264.53
Relative potency (+ anion to no anion), Ratio + anion:no anion ([6]; ratio of IC50, HT29): 0.88
Selectivity indices relative to ARPE-19, Ratio + anion:no anion ([6]; ratio of SI (ARPE-19), HT29): 2.602
Selectivity indices relative to MCF10A, Ratio + anion:no anion ([6]; ratio of SI (MCF 10A), HT29): 1.173
IC50 ([7]; BXPC3, mean of replicates, read-out: Mean IC50): 491 nM
IC50 ([7]; BXPC3, read-out: Mean IC50 values): 491 nM
IC50 ([7]; BXPC3, single replicate, read-out: IC50 values for each replicate): 544 nM and 586 nM and 260 nM and 478 nM and 588 nM
Selectivity index (ARPE19) ([7]; IC50 ARPE-19 / IC50 BXPC3): 245.03
Selectivity index (MCF10A) ([7]; IC50 MCF10A / IC50 BXPC3): 101.29
Relative potency (+ anion to no anion), Ratio + anion:no anion ([7]; ratio of IC50, BXPC3): 1.68
Selectivity indices relative to ARPE-19, Ratio + anion:no anion ([7]; ratio of SI (ARPE-19), BXPC3): 1.364
Selectivity indices relative to MCF10A, Ratio + anion:no anion ([7]; ratio of SI (MCF 10A), BXPC3): 0.615
